Test results from ChEMBL document CHEMBL1127437, “Novel benzisoxazole derivatives as potent and selective inhibitors of acetylcholinesterase” (J Med Chem, 1994).

Columns and labels:
Acetylcholinesterase = Acetylcholinesterase (Homo sapiens, UniProt P22303)
Description: Evaluated for the in vitro inhibition of the Acetylcholinesterase (AChE) from human erythrocytes

Butyrylcholinesterase = Butyrylcholinesterase (Equus caballus, UniProt Q9N1N9)
Description: Compound was evaluated for the in vitro inhibition of the Butyrylcholinesterase from horse serum

Mus musculus [1] = assay: In vivo activity was determined by measuring […] in mouse forebrain.; type: functional
Mus musculus [2] = assay: Tested for effective dose for […] by peroral administration in vivo in mouse; type: functional; conditions: po
Mus musculus [3] = species: Mus musculus; assay: animal or person
Description: Tested for effective dose for elevation of Acetylcholinesterase (AChE) in mouse forebrain

Sequence of Butyrylcholinesterase (Q9N1N9 whole entry): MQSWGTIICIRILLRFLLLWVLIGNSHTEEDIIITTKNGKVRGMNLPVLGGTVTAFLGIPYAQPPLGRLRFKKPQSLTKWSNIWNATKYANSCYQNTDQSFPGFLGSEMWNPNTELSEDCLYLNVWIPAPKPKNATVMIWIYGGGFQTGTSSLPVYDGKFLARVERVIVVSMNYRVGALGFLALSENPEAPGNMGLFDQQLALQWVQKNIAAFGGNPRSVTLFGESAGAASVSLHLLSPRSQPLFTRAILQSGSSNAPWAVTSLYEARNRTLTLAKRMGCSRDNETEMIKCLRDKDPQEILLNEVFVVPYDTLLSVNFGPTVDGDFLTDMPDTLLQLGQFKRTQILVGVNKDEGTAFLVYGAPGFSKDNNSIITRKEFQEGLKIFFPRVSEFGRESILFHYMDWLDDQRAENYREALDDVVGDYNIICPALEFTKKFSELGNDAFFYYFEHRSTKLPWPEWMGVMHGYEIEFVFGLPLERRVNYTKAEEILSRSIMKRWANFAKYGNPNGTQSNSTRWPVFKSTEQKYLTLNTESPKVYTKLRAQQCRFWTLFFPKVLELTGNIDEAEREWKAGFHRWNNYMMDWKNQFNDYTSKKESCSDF
Sequence of Acetylcholinesterase (P22303 whole entry): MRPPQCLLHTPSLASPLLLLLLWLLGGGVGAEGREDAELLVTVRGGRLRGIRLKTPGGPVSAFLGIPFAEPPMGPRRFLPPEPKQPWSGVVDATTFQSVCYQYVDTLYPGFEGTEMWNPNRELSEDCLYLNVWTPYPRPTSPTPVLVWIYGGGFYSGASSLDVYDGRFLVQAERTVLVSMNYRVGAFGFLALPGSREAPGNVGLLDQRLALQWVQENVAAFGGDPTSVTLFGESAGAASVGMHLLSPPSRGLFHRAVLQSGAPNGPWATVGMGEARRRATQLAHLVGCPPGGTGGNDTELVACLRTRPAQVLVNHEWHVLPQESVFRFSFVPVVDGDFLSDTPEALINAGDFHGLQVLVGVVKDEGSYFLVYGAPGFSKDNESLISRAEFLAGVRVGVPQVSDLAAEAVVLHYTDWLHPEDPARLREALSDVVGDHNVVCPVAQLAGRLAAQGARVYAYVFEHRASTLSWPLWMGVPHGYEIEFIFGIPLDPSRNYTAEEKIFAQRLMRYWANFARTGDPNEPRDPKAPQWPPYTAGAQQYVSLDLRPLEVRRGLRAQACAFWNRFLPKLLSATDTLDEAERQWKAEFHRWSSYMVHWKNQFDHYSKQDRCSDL

Work on O=S(=O)(Nc1ccc2c(CCC3CCN(Cc4ccccc4)CC3)noc2c1)c1ccccc1 yielded an IC50 (Acetylcholinesterase) of 14 nM.

CNC(=O)Oc1ccc2c(c1)[C@]1(C)CCN(C)[C@@H]1N2C [PHYSOSTIGMINE] showed an IC50 (Butyrylcholinesterase) of 73 nM.

For Cc1ccc2onc(CCC3CCN(Cc4ccccc4)CC3)c2c1, the IC50 (Acetylcholinesterase) was 7.8 nM.

Cc1cc2onc(CCC3CCN(Cc4ccccc4)CC3)c2cc1C was tested, and the IC50 (Acetylcholinesterase) was 5.8 nM.

Work on c1ccc(CN2CCC(CCc3ncnc4ccccc34)CC2)cc1 yielded an IC50 (Acetylcholinesterase) of 340 nM.

With O=C(Nc1ccc2c(CCC3CCN(Cc4ccccc4)CC3)noc2c1)c1ccccc1 the ED50 (Mus musculus [1]) was greater than 100 mg/kg.

Work on CC(=O)Nc1ccc2c(CCC3CCN(Cc4ccccc4)CC3)noc2c1 yielded an IC50 (Acetylcholinesterase) of 2.8 nM, an IC50 (Butyrylcholinesterase) of 9000 nM and an ED50 (Mus musculus [2]) of 2.4 mg/kg.

Compound N#Cc1ccc2c(CCC3CCN(Cc4ccccc4)CC3)noc2c1 has an IC50 (Acetylcholinesterase) of 101 nM.

Compound c1ccc(CN2CCC(CCc3noc4cc(N5CCOCC5)ccc34)CC2)cc1 has an IC50 (Butyrylcholinesterase) of 4700 nM.

Compound Brc1ccc2c(CCC3CCN(Cc4ccccc4)CC3)noc2c1 has an IC50 (Acetylcholinesterase) of 50 nM.

With COc1cc2c(cc1OC)C(=O)C(CC1CCN(Cc3ccccc3)CC1)C2 (stereo not drawn) [DONEPEZIL] the ED50 (Mus musculus [3]) was 14 mg/kg.
